Tests used:
mTORC1 (mTOR/GbL/Raptor) = mTORC1 (mTOR/GbL/Raptor) (Homo sapiens, UniProt P42345); assay: mTOR/GbL/Raptor (mTORC1) ELISA Assay; format: biochemical; conditions: 0.2 nM mTORC1, 10 μM ATP, 50 nM NHis-tagged 4E-BP1; phosphorylation of 4E-BP1; read-out: IC50
Protocol: mTOR/GbL/Raptor (mTORC1) ELISA Assay
The measurement of mTORC1 enzyme activity was performed in an ELISA assay format following the phosphorylation of 4E-BP1 protein. All experiments were performed in the 384-well format. Generally, 0.5 μL DMSO containing varying concentrations of the test compound was mixed with 15 μL enzyme solution. Kinase reactions were initiated with the addition of 15 μL of substrates-containing solution. The assay conditions were as follows; 0.2 nM mTORC1, 10 μM ATP and 50 nM NHis-tagged 4E-BP1 in 20 mM Hepes, pH 7.2, 1 mM DTT, 50 mM NaCl, 10 mM MnCl2, 0.02 mg/mL BSA, 0.01% CHAPS, 50 mM β-glycerophosphate. Following an incubation of 120 minutes at ambient temperature, 20 μL of the reaction volume was transferred to a Ni-Chelate-coated 384-well plate. The binding step of the 4E-BP1 protein proceeded for 60 minutes, followed by washing 4 times each with 50 μL of Tris-buffered saline solution (TBS). Anti-phospho-4E-BP1 rabbit-IgG (20 μL, 1:5000) in 5% BSA-TBST (0.2% Tween-20 in TBS) was added and further incubated for 60 minutes. Incubation with a secondary HRP-tagged anti-IgG was similarly performed after washing off the primary antibody (4 washes of 50 μL). Following the final wash step with TBST, 20 μL of SuperSignal ELISA Femto (Pierce Biotechnology) was added and the luminescence measured using an EnVision plate reader.

PI3Kα = PI3Kα (Homo sapiens, UniProt P42336); assay: PI3K Biochemical Assays (ATP consumption, luciferase-luciferin chemiluminescence); conditions: PI3Kα 1.5 nM, ATP 1 μM, PIP2 10 μM; percent of ATP consumed
PI3Kα, sequence (P42336 whole entry): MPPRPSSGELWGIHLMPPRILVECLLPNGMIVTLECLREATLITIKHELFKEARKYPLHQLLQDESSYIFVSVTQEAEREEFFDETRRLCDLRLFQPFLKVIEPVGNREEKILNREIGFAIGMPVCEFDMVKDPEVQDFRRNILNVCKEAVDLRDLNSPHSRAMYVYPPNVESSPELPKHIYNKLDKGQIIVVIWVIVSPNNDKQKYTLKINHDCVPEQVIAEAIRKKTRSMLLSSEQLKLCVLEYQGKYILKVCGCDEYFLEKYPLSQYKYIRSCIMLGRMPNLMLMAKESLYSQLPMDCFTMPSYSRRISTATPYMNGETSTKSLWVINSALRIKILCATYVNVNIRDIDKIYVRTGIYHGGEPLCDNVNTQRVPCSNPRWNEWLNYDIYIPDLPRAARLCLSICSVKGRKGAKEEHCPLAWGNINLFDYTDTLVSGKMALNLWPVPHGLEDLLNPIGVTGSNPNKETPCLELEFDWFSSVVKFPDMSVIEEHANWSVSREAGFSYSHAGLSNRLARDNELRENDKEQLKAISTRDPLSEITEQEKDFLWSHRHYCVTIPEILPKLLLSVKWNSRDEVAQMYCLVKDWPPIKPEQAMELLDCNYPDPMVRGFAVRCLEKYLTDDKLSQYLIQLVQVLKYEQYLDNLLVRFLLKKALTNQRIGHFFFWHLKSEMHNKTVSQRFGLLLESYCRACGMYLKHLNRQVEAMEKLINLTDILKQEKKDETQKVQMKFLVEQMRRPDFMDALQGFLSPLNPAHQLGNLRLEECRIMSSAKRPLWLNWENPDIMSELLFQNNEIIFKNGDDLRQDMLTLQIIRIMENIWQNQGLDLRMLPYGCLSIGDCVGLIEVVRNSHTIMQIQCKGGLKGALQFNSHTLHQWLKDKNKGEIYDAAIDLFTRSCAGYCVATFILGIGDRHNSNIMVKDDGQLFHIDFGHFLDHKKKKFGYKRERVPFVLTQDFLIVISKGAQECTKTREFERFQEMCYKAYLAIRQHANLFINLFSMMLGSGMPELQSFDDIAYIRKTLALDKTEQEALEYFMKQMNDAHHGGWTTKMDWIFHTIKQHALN
PI3Kα, sequence (P27986 whole entry partner): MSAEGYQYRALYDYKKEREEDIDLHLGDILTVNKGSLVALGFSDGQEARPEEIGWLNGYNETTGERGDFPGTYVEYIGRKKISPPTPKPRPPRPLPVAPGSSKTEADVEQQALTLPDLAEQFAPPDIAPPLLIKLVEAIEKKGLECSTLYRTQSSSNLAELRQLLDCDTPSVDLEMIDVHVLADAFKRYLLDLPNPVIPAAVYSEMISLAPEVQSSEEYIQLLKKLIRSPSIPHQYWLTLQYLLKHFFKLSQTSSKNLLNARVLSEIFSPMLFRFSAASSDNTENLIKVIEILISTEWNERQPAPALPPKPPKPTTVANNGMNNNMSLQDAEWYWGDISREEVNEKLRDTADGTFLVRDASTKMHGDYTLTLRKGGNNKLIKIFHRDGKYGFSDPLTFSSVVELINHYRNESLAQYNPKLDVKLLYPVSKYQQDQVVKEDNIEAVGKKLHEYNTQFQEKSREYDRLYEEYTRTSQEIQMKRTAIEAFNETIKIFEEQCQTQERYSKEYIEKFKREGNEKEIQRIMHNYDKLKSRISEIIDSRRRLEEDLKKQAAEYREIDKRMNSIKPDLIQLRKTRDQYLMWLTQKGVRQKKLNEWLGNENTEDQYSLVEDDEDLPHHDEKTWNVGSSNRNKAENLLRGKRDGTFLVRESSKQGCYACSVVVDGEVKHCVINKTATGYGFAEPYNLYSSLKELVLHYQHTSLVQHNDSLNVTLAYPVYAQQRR
Procedure, shortened: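 Enzyme (1.5 nM), PIP2 substrate (10 μM) and ATP (1 μM) react about 2 h at room temperature in Tris buffer pH 7.5 with MgCl2, EGTA, DTT and CHAPS. Remaining ATP detected by Kinase-Glo luminescence; total consumption limited to 40-60%.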

Row | SMILES | IC50 (mTORC1 (mTOR/GbL/Raptor)) [nM] | IC50 (PI3Kα) [nM]
1 | Cc1nc2ccc(-c3ccc4c(c3)CN(C(=O)N3CC=C(c5ccccc5)CC3)CCO4)cc2[nH]1 [Compound 157, 7-(2-methyl-1H-benzimidazol-6-yl)-4-[(4-phenyl-3,6-dihydropyridin-1(2H)-yl)carbonyl]-2,3,4,5-tetrahydro-1,4-benzoxazepine] | 50 to 250 | 200 to 500
2 | Cc1nc2ccc(-c3ccc4c(c3)CN(C(=O)N3CCN(c5ccccn5)CC3)CCO4)cc2[nH]1 [Compound 172, 7-(2-methyl-1H-benzimidazol-6-yl)-4-[(4-pyridin-2-ylpiperazin-1-yl)carbonyl]-2,3,4,5-tetrahydro-1,4-benzoxazepine] | 700 to 2600 | 200 to 500
3 | Cc1nc2ccc(-c3ccc4c(c3)CN(C(=O)N3CCC5CCCCC5C3)CCO4)cc2[nH]1 (stereo not drawn) [Compound 156, 7-(2-methyl-1H-benzimidazol-6-yl)-4-(octahydroisoquinolin-2(1H)-ylcarbonyl)-2,3,4,5-tetrahydro-1,4-benzoxazepine] | 50 to 250 | 200 to 500
4 | CS(=O)(=O)Nc1cc(-c2ccc3c(c2)CN(C(=O)N2C4CCC2CC(O)(C(F)(F)F)C4)CCO3)cnc1Cl (stereo not drawn) [Compound 181, N-[2-chloro-5-(4-{[3-hydroxy-3-(trifluoromethyl)-8-azabicyclo[3.2.1]oct-8-yl]carbonyl}-2,3,4,5-tetrahydro-1,4-benzoxazepin-7-yl)pyridin-3-yl]methanesulfonamide] | ≤ 50 | ≤ 75
5 | Cc1nc2ccc(-c3ccc4c(c3)CN(C(=O)N3CCC(c5ccccc5)C3)CCO4)cc2[nH]1 (stereo not drawn) [Compound 98, 7-(2-methyl-1H-benzimidazol-6-yl)-4-[(3-phenylpyrrolidin-1-yl)carbonyl]-2,3,4,5-tetrahydro-1,4-benzoxazepine] | 50 to 250 | 500 to 1000
6 | CC1CCN(C(=O)N2CCOc3ccc(-c4cncs4)cc3C2)CC1 [Compound 8, 4-[(4-methylpiperidin-1-yl)carbonyl]-7-(1,3-thiazol-5-yl)-2,3,4,5-tetrahydro-1,4-benzoxazepine] | 250 to 700 | 1000 to 3000
7 | Nc1nc2ccc(-c3ccc4c(c3)CN(C(=O)N3CCC(=O)CC3c3cccc(F)c3)CCO4)cc2[nH]1 (stereo not drawn) [Compound 28, 1-{[7-(2-amino-1H-benzimidazol-6-yl)-2,3-dihydro-1,4-benzoxazepin-4(5H)-yl]carbonyl}-2-(3-fluorophenyl)piperidin-4-one] | ≤ 50 | 75 to 200
8 | CCNc1nc2ncc(-c3ccc4c(c3)CN(C(=O)N3[C@@H]5CC[C@H]3C[C@](O)(C(F)(F)F)C5)CCO4)cc2[nH]1 [Compound 179, 8-({7-[2-(ethylamino)-1H-imidazo[4,5-b]pyridin-6-yl]-2,3-dihydro-1,4-benzoxazepin-4(5H)-yl}carbonyl)-3-(trifluoromethyl)-8-azabicyclo[3.2.1]octan-3-(endo)-ol] | ≤ 50 | ≤ 75
9 | O=C(N1CCOc2ccc(-c3cnc4nc[nH]c4c3)cc2C1)N1[C@@H]2CC[C@H]1C[C@](O)(C(F)(F)F)C2 [Compound 178, 8-{[7-(1H-imidazo[4,5-b]pyridin-6-yl)-2,3-dihydro-1,4-benzoxazepin-4(5H)-yl]carbonyl}-3-(trifluoromethyl)-8-azabicyclo[3.2.1]octan-3-(endo)-ol] | 50 to 250 | 200 to 500
10 | COC(=O)Nc1nc2ccc(-c3ccc4c(c3)CN(C(=O)N3C5CCC3CC(=O)C5)CCO4)cc2[nH]1 [Compound 25, methyl (6-{4-[(3-oxo-8-azabicyclo[3.2.1]oct-8-yl)carbonyl]-2,3,4,5-tetrahydro-1,4-benzoxazepin-7-yl}-1H-benzimidazol-2-yl)carbamate] | 50 to 250 | 200 to 500
11 | Cc1nc2ccc(-c3ccc4c(c3)CN(C(=O)N3CCC(=O)CC3c3ccc(F)c(F)c3)CCO4)cc2[nH]1 (stereo not drawn) [Compound 121, 2-(3,4-difluorophenyl)-1-{[7-(2-methyl-1H-benzimidazol-6-yl)-2,3-dihydro-1,4-benzoxazepin-4(5H)-yl]carbonyl}piperidin-4-one] | 50 to 250 | 75 to 200
12 | Cc1nc2ccc(-c3ccc4c(c3)CN(C(=O)N3CCCCC3c3cc(F)cc(F)c3)CCO4)cc2[nH]1 (stereo not drawn) [Compound 130, 4-{[2-(3,5-difluorophenyl)piperidin-1-yl]carbonyl}-7-(2-methyl-1H-benzimidazol-6-yl)-2,3,4,5-tetrahydro-1,4-benzoxazepine] | ≤ 50 | ≤ 75
13 | Cc1nc2ccc(-c3ccc4c(c3)CN(C(=O)N3CCCCC3c3ccc(C(F)(F)F)cc3)CCO4)cc2[nH]1 (stereo not drawn) [Compound 120, 7-(2-methyl-1H-benzimidazol-6-yl)-4-({2-[4-(trifluoromethyl)phenyl]piperidin-1-yl}carbonyl)-2,3,4,5-tetrahydro-1,4-benzoxazepine] | ≤ 50 | 200 to 500
14 | Cc1nc2ccc(-c3ccc4c(c3)CN(C(=O)N3C5CCC3c3ccccc35)CCO4)cc2[nH]1 [Compound 143, 9-{[7-(2-methyl-1H-benzimidazol-6-yl)-2,3-dihydro-1,4-benzoxazepin-4(5H)-yl]carbonyl}-1,2,3,4-tetrahydro-1,4-epiminonaphthalene] | 50 to 250 | 200 to 500
15 | O=C(N1CCOc2ccc(-c3ccc(-c4ncc[nH]4)cc3)cc2C1)N1[C@@H]2CC[C@H]1C[C@](O)(C(F)(F)F)C2 [Compound 59, 8-({7-[4-(1H-imidazol-2-yl)phenyl]-2,3-dihydro-1,4-benzoxazepin-4(5H)-yl}carbonyl)-3-(trifluoromethyl)-8-azabicyclo[3.2.1]octan-3-(endo)-ol] | ≤ 50 | ≤ 75
16 | Cc1nc2ccc(-c3ccc4c(c3)CN(C(=O)N3CCN(c5cnccn5)CC3)CCO4)cc2[nH]1 [Compound 161, 7-(2-methyl-1H-benzimidazol-6-yl)-4-[(4-pyrazin-2-ylpiperazin-1-yl)carbonyl]-2,3,4,5-tetrahydro-1,4-benzoxazepine] | 250 to 700 | 200 to 500
17 | Cc1nc2ccc(-c3ccc4c(c3)CN(C(=O)N3CCCC[C@@H]3c3ccccc3)CCO4)cc2[nH]1 [Compound 66, 7-(2-methyl-1H-benzimidazol-6-yl)-4-{[(2R)-2-phenylpiperidin-l-yl]carbonyl}-2,3,4,5-tetrahydro-1,4-benzoxazepine] | ≤ 50 | ≤ 75
18 | Cc1nc2ccc(-c3ccc4c(c3)CN(C(=O)N3CCC(Oc5ccc(Cl)cc5)CC3)CCO4)cc2[nH]1 [Compound 70, 4-({4-[(4-chlorophenyl)oxy]piperidin-1-yl}carbonyl)-7-(2-methyl-1H-benzimidazol-6-yl)-2,3,4,5-tetrahydro-1,4-benzoxazepine] | 50 to 250 | 1000 to 3000
19 | COC(=O)Nc1nc2ccc(-c3ccc4c(c3)CN(C(=O)N3CCC(O)(C(F)(F)F)CC3)CCO4)cc2[nH]1 [Compound 22, methyl [6-(4-{[4-hydroxy-4-(trifluoromethyl)piperidin-1-yl]carbonyl}-2,3,4,5-tetrahydro-1,4-benzoxazepin-7-yl)-1H-benzimidazol-2-yl]carbamate] | ≤ 50 | 200 to 500
20 | Cc1nc2ccc(-c3ccc4c(c3)CN(C(=O)N3CCN(c5ccc(F)cc5)CC3)CCO4)cc2[nH]1 [Compound 175, 4-{[4-(4-fluorophenyl)piperazin-1-yl]carbonyl}-7-(2-methyl-1H-benzimidazol-6-yl)-2,3,4,5-tetrahydro-1,4-benzoxazepine] | 700 to 2600 | 1000 to 3000
21 | CCOC(=O)C1CCCCN1C(=O)N1CCOc2ccc(-c3ccc4nc(C)[nH]c4c3)cc2C1 (stereo not drawn) [Compound 75, ethyl 1-{[7-(2-methyl-1H-benzimidazol-6-yl)-2,3-dihydro-1,4-benzoxazepin-4(5H)-yl]carbonyl}piperidine-2-carboxylate] | 700 to 2600 | 1000 to 3000
22 | COC(=O)Nc1nc2ncc(-c3ccc4c(c3)CN(C(=O)N3CCC(CCF)CC3)CCO4)cc2[nH]1 [Compound 35, methyl [6-(4-{[4-(2-fluoroethyl)piperidin-1-yl]carbonyl}-2,3,4,5-tetrahydro-1,4-benzoxazepin-7-yl)-1H-imidazo[4,5-b]pyridin-2-yl]carbamate] | ≤ 50 | ≤ 75
23 | O=C1CCN(C(=O)N2CCOc3ccc(-c4ccc5[nH]c(NCC(F)(F)F)nc5c4)cc3C2)C(c2cccc(F)c2)C1 (stereo not drawn) [Compound 31, 2-(3-fluorophenyl)-1-{[7-{2-[(2,2,2-trifluoroethyl)amino]-1H-benzimidazol-5-yl}-2,3-dihydro-1,4-benzoxazepin-4(5H)-yl]carbonyl}piperidin-4-one] | ≤ 50 | 200 to 500
24 | O=C1CCN(C(=O)N2CCOc3ccc(-c4ccc(-c5ncc[nH]5)cc4)cc3C2)C(c2ccc(F)cc2)C1 (stereo not drawn) [Compound 54, 2-(4-fluorophenyl)-1-({7-[4-(1H-imidazol-2-yl)phenyl]-2,3-dihydro-1,4-benzoxazepin-4(5H)-yl}carbonyl)piperidin-4-one] | ≤ 50 | ≤ 75

From US8637499B2, “Benzoxazepines as inhibitors of PI3K/mTOR and methods of their use and manufacture” (Exelixis, Inc., priority 2009, dated 2014)
